According to ChEMBL document CHEMBL1649399, “Identification of a reduction product of aristolochic acid: implications for the metabolic activation of carcinogenic aristolochic acid” (J Nat Prod, 2010):
The source made the active and inactive calls. No cut-off for these calls is given here.

Tested on: Nucleic Acid
Test: Binding affinity to DNA assessed as DNA adduct formation
Format: nucleic-acid assay

Compound	Activity
COc1cccc2c1cc1c3c(cc4c(c32)OCO4)C(=O)N1	Active
COc1cccc2c1c(/N=c1\[nH]cnc3c1ncn3[C@H]1C[C@H](O)[C@@H](CO)O1)c1c3c(cc4c(c32)OCO4)C(=O)N1	Active
CC(=O)Nc1ccc2c(c1)Cc1ccccc1-2	Active
O=C1Nc2c(/N=c3\[nH]cnc4c3ncn4[C@H]3C[C@H](O)[C@@H](CO)O3)c3ccccc3c3c4c(cc1c23)OCO4	Active
O=C1Nc2c(Nc3nc4c(ncn4[C@H]4C[C@H](O)[C@@H](CO)O4)c(=O)[nH]3)c3ccccc3c3c4c(cc1c23)OCO4	Active
O=C1Nc2cc3ccccc3c3c4c(cc1c23)OCO4	Active
COc1cccc2c1c(Nc1nc3c(ncn3[C@H]3C[C@H](O)[C@@H](CO)O3)c(=O)[nH]1)c1c3c(cc4c(c32)OCO4)C(=O)N1	Active
